The source of these data is paper PMC10809103, “Phosphatidylthreonine is a procoagulant lipid detected in human blood and elevated in coronary artery disease” (Journal of lipid research, 2023).

One test concerns the target T1, Prothrombin (FII) (Homo sapiens, UniProt P00734).
T1 construct: gene F2; zymogen prothrombin; source and preparation only in supplement
Kind of test: surface plasmon resonance, lipid in nanodiscs, steady state. The settings on record: read-out: Kd (μM) / 40% PS 60% PC. The format is binding. From the text:
surface plasmon resonance, lipid in nanodiscs, steady state on Prothrombin (FII)
(In SPR one partner is held on a chip, and binding of the other changes the refractive index at the surface.)

Another test has as its target T2, Factor X (FX) (Homo sapiens, UniProt P00742).
T2 construct: gene F10; zymogen factor X, two-chain; source and preparation only in supplement; with Coagulation factor X (factor X heavy chain)
The test is described as above. The test is classed as binding. Conditions: read-out: Kd (μM) / 40% PS 60% PC. An excerpt:
surface plasmon resonance, lipid in nanodiscs, steady state on Factor X (FX)

T2 sequence (P00742 41-179): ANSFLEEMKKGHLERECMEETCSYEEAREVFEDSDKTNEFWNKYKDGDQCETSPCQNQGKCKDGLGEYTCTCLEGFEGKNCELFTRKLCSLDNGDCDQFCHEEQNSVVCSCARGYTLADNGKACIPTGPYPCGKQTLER
T2 sequence (P00742 183-488): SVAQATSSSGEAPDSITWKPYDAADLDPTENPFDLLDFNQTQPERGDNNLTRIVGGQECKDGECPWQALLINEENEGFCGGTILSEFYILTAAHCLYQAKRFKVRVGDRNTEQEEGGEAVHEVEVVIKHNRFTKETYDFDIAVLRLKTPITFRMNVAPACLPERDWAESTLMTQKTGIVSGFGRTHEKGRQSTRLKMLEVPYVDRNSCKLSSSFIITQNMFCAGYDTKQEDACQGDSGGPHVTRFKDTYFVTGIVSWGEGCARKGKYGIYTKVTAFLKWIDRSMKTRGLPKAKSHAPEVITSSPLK

For `CCCCCCCC/C=C\CCCCCCCC(=O)O[C@H](COC(=O)CCCCCCCCCCCCCCC)COP(=O)(O)OC[C@H](N)C(=O)O` [PS 16:0/18:1(9Z)], the Kd came out at 6.23 ± 0.921 µM on Prothrombin (FII) and 1.33 ± 0.191 µM on Factor X (FX).
